Where a name gives a salt, the structure may show the parent alone.

System in the first data set: not given
Assay: not given
Conditions: not given
For the compound `CCCNC(=N)Nc1nc2ccc(OC(F)(F)F)cc2s1` [Example 16, 1-Propyl-3-[6-(trifluoromethoxy)benzothiazol-2-yl]guanidine], the melting point was 110 to 111 °C. Compound `CCCNC(=S)NC1=Nc2ccc(OC(F)(F)F)cc2CS1` [Example 32, 1-Propyl-3-[6-(trifluoromethoxy)-4H-3,1-benzothiazin-2-yl]thiourea] returned a melting point of 148 to 151 °C. Still for that read-out and setting: with `CN/C(C)=N/C1=Nc2ccccc2CS1` (as salt: oxalate) [Example 17, N′-(4H-3,1-benzothiazin-2-yl)-N-methylacetamidine] the figure was 110 to 113 °C (dec.); with `CCNC(=S)NC1=Nc2ccccc2CS1` [Example 29, 1-(4H-3,1-benzothiazin-2-yl)-3-ethylthiourea], 191 to 196 °C. On the same count and under the same terms, with `CCCCNC(=S)Nc1nc2ccc(OC(F)(F)F)cc2s1` [Example 12, 1-Butyl-3-[6-(trifluoromethoxy)benzothiazol-2-yl]thiourea] the figure was 211 °C; with `CCCNC(=S)NC1=Nc2ccc(OC(F)(F)F)cc2SC1` [Example 34, 1-Propyl-3-(7-trifluoromethoxy-2H-1,4-benzothiazin-3-yl)thiourea], 180 to 182 °C; with `CCNC(=S)NC1=Nc2ccc(OC(F)(F)F)cc2SC1` [Example 33, 1-Ethyl-3-[7-(trifluoromethoxy)-2H-1,4-benzothiazin-3-yl]thiourea], 199 to 201 °C.

For `FC(F)(F)Oc1ccc2nc(NC(=S)Nc3ccccc3)sc2c1` [Example 13, 1-Phenyl-3-[6-(trifluoromethoxy)benzothiazol-2-yl]thiourea], the melting point amounted to 234 °C.

The compound `CCCNC(=S)NC1=Nc2ccccc2CS1` [Example 30, 1-(4H-3,1-benzothiazin-2-yl)-3-propylthiourea] had a melting point of 180 to 184 °C.

Compound `CCNC(=S)NC1=Nc2ccc(OC(F)(F)F)cc2CS1` [Example 31, 1-Ethyl-3-[6-(trifluoromethoxy)-4H-3,1-benzothiazin-2-yl]thiourea] registered a melting point of 169 to 172 °C. In the case of `CCNC(=N)Nc1nc2ccc(OC(F)(F)F)cc2s1` [Example 15, 1-Ethyl-3-[6-(trifluoromethoxy)benzothiazol-2-yl]guanidine], the melting point was 127 to 129 °C. Turning to `Fc1ccc(NC(=S)Nc2nc3ccc(OC(F)(F)F)cc3s2)cc1` [Example 14, 1-(4-Fluorophenyl)3-[6-(trifluoromethoxy)benzothiazol-2-yl]thiourea], the melting point worked out at 207 °C. Turning to `C/C(=N\C1=Nc2ccccc2CS1)N(C)C` (as salt: oxalate) [Example 18, N′-(4H-3,1-benzothiazin-2-yl)-N,N-dimethylacetamidine], the melting point was 154 to 157 °C (dec.).

On to `CN/C(C)=N/C1=Nc2ccccc2SC1` (as salt: oxalate) [Example 21, N′-(2H-1,4-benzothiazin-3-yl)-N-methylacetamidine], for which the melting point is 164 to 166 °C (dec.). Consider `C/C(=N\C1=Nc2ccccc2SC1)N(C)C` (as salt: oxalate) [Example 22, N′-(2H-1,4-benzothiazin-3-yl)-N,N-dimethylacetamidine], for which the melting point is 120 to 122 °C (dec.). Same read-out and setting: then `CC(C)NC(=S)Nc1nc2ccc(OC(F)(F)F)cc2s1` [Example 11, 1-Isopropyl-3-[6-(trifluoromethoxy)benzothiazol-2-yl]thiourea], with 242 °C; and `CCCNC(=S)Nc1nc2ccc(OC(F)(F)F)cc2s1` [Example 10, 1-Propyl-3-[6-(trifluoromethoxy)benzothiazol-2-yl]thiourea], with 226 to 228 °C. In turn, `CCNC(=S)Nc1nc2ccc(OC(F)(F)F)cc2s1` [Example 9, 1-Ethyl-3-[6-(trifluoromethoxy)benzothiazol-2-yl]thiourea] registered a melting point of 199 to 200 °C.

Another data set concerns cortical slices. Put plainly: in vitro ischemia (oxygen-glucose deprivation/re-oxygenation): glutamate released during re-oxygenation. The class given is cell-based. The following applies: rat cortical slices, concentrations of 0.1-1 μM. The procedure:
(§1) Said in vitro ischemia model is generally accepted as a comprehensive model for the study and selection of products with neuroprotective activity.
Male Sprague-Dawley rats (350-450 g; Charles River Italia, Calco, Italy) have been sacrificed following anaesthesia (i.p. injection of 30 mg/kg ketamine hydrochloride and 8 mg/kg xylazine hydrochloride). The brain is rapidly removed and placed in aCSF (artificial Cerebro Spinal Fluid, composition expressed in mM: 120 NaCl, 2.5 KCl, 1.3 MgCl2, 1.0 NaH2PO4, 1.5 CaCl2, 26 NaHCO3, 11 glucose, saturated with 95% O2 −5% CO2, with a final pH of 7.4, osmolarity 285-290 mOsmol). The cortex is removed and sectioned into slices 400 μm thick.
The slices are then maintained in oxygenated aCSF supplemented with 400 μM ascorbic acid for 1 hour at room temperature.
Cortical slices total weight 33.6±2.6 mg, n=10) are incubated at 37° C., in 2 ml aCSF under a flow of 95% O2/5% CO2 for a period of 30 minutes. Oxygen-glucose deprivation is then implemented for 30 minutes by incubating in aCSF where the glucose has been substituted by sucrose and the oxygen mix air flow replaced with 95% N2/5% CO2. After the period of oxygen-glucose deprivation, the slices are placed in oxygenated aCSF for 90 minutes (re-oxygenation). In the treated samples, the compound of formula I is dissolved in aCSF at the concentrations described.
(§2) Neuronal damage is assessed quantitatively by measuring the glutamate and lactate dehydrogenase (LDH) released into the aCSF during the period of re-oxygenation. In particular, glutamate is measured fluorimetrically (excitation at 366 nm; emission at 450 nm) using the conversion of NAD^+ to NADH catalysed by glutamate dehydrogenase (Eilers et al., 1999) while LDH activity is determined spectrophotometrically by measuring the reduction in absorbance at 340 nm via the oxidation of NADH to NAD^+ (Gay et al., 1968).
All experiments have been conducted using slices obtained from at least 4 different rats. Data is reported as the S.E.M. and “n” is defined as the sample number. Data for glutamate and LDH activity is expressed as nmol/mg tissue and U/mg tissue, respectively. One unit (U) of LDH activity is defined as the correspondent yielding one micromole of lactate in one minute. Statistical analyses have been conducted using ANOVA followed by post-hoc Dunnett tests (GraphPad INSTAT v3.00, GraphPad Software, San Diego, Calif., USA).
As to `C/C(=N/c1nc2ccc(OC(F)(F)F)cc2s1)N(C)C` [Example 5, N,N-dimethyl-N′-[6-(trifluoromethoxy)benzothiazol-2-yl]acetamidine], the “reduction in glutamate release” value was “remarkable reduction (a reduction in glutamic acid release and/or LDH activity to a value comprised of between 10% and 50% of that of the control sample)”. In the case of `CCN(CC)/C(C)=N/C1=Nc2ccccc2CS1` [Example 19, N′-(4H-3,1-benzothiazin-2-yl)-N,N-diethylacetamidine], the “reduction in glutamate release” value was “remarkable reduction (a reduction in glutamic acid release and/or LDH activity to a value comprised of between 10% and 50% of that of the control sample)”. Still for that read-out and setting: with `CCCCNC(=S)Nc1nc2ccc(OC(F)(F)F)cc2s1` [Example 12, 1-Butyl-3-[6-(trifluoromethoxy)benzothiazol-2-yl]thiourea] the entry was “remarkable reduction (a reduction in glutamic acid release and/or LDH activity to a value comprised of between 10% and 50% of that of the control sample)”; with `CN/C(C)=N/C1=Nc2ccccc2SC1` [Example 21, N′-(2H-1,4-benzothiazin-3-yl)-N-methylacetamidine], “remarkable reduction (a reduction in glutamic acid release and/or LDH activity to a value comprised of between 10% and 50% of that of the control sample)”; with `CN/C(C)=N/C1=Nc2ccccc2CS1` [Example 17, N′-(4H-3,1-benzothiazin-2-yl)-N-methylacetamidine], “remarkable reduction (a reduction in glutamic acid release and/or LDH activity to a value comprised of between 10% and 50% of that of the control sample)”.

In the case of `C/C(=N\C1=Nc2ccccc2CS1)N(C)C` [Example 18, N′-(4H-3,1-benzothiazin-2-yl)-N,N-dimethylacetamidine], the “reduction in glutamate release” value is “remarkable reduction (a reduction in glutamic acid release and/or LDH activity to a value comprised of between 10% and 50% of that of the control sample)”.

Staying with this data set, now noted: rat cortical slices, concentrations of 0.1-10 μM.
On to `CCCNC(=N)Nc1nc2ccc(OC(F)(F)F)cc2s1` [Example 16, 1-Propyl-3-[6-(trifluoromethoxy)benzothiazol-2-yl]guanidine], for which the “reduction in glutamate release” value was “remarkable reduction (a reduction in glutamic acid release and/or LDH activity to a value comprised of between 10% and 50% of that of the control sample)”.

A further data set concerns cortical slices. Put plainly: in vitro ischemia (oxygen-glucose deprivation/re-oxygenation): LDH activity released during re-oxygenation. The format is cell-based. Conditions: rat cortical slices, concentrations of 0.1-1 μM. The procedure: as §1
Male Sprague-Dawley rats (350-450 g; Charles River Italia, Calco, Italy) have been sacrificed following anaesthesia (i.p. injection of 30 mg/kg ketamine hydrochloride and 8 mg/kg xylazine hydrochloride). The brain is rapidly removed and placed in aCSF (artificial Cerebro Spinal Fluid, composition expressed in mM: 120 NaCl, 2.5 KCl, 1.3 MgCl2, 1.0 NaH2PO4, 1.5 CaCl2, 26 NaHCO3, 11 glucose, saturated with 95% O2 −5% CO2, with a final pH of 7.4, osmolarity 285-290 mOsmol). The cortex is removed and sectioned into slices 400 μm thick. […]
as §2
All experiments have been conducted using slices obtained from at least 4 different rats. […] Data for glutamate and LDH activity is expressed as nmol/mg tissue and U/mg tissue, respectively. […]
`CCNC(=S)Nc1nc2ccc(OC(F)(F)F)cc2s1` [Example 9, 1-Ethyl-3-[6-(trifluoromethoxy)benzothiazol-2-yl]thiourea]: the “reduction in LDH activity” value is “remarkable reduction (a reduction in glutamic acid release and/or LDH activity to a value comprised of between 10% and 50% of that of the control sample)”.

One may read the melting point as the temperature, or range, at which the solid turns liquid.

These data come from patent US8420634B2, “Amidine, thiourea and guanidine derivatives of 2-aminobenzothiazoles and aminobenzothiazines for their use as pharmacological agents for the treatment of neurodegenerative pathologies” (Rottapharm S.p.A., priority 2007, dated 2013).
